Source: patent US9763445B2, “Safened herbicidal compositions comprising a pyridine carboxylic acid herbicide” (Dow AgroSciences, LLC, priority 2014, dated 2017)

Legend:
spring barley (HORVS) = experiment: Postemergence greenhouse trial, % visual injury on spring barley; type: in vivo, Hordeum vulgare; conditions: alone
Outline: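 Greenhouse crops at second to third true leaf stage sprayed postemergence at 187 L/ha with herbicide (g ae/ha) plus safener (g ai/ha) in acetone/DMSO diluted into 1.5% v/v Agri-dex. Injury scored visually versus solvent-blank controls after 20-22 d, 0 (none) to 100% (complete kill); expected mixture effects by Colby's equation.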

lambsquarters (CHEAL) = experiment: Postemergence greenhouse trial, % visual injury on lambsquarters; type: in vivo, Chenopodium album; conditions: Chenopodium album, post-emergence, alone, read-out: % visual injury, Ob
Outline: (§1)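 Visual injury, 0 (none) to 100 (complete kill), rated 20-22 d after overhead track-sprayer application at 187 L/ha; Colby's equation gave expected mixture responses. Herbicide (g ae/ha) and cloquintocet-mexyl safener (g ai/ha) diluted in aqueous 1.5% v/v Agri-dex, applied to weeds at 2–3 true leaves.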

thistle (CIRAR) = experiment: Postemergence greenhouse trial, % visual injury on thistle; type: in vivo, Cirsium arvense; conditions: Cirsium arvense, post-emergence, alone, read-out: % visual injury, Ob
Outline: as §1

common poppy (PAPRH) = experiment: Postemergence greenhouse trial, % visual injury on common poppy; type: in vivo, Papaver rhoeas; conditions: Papaver rhoeas, post-emergence, alone, read-out: % visual injury, Ob
Outline: (§2)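 Herbicide rates g ae/ha, safener (cloquintocet-mexyl) rates g ai/ha; spray carrier 1.5% v/v crop oil concentrate, 187 L/ha, 2nd–3rd leaf stage. Rating: visual % injury at 20-22 d.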

wild mustard (SINAR) = experiment: Postemergence greenhouse trial, % visual injury on wild mustard; type: in vivo, Sinapis arvensis; conditions: Brassica, post-emergence, alone, read-out: % visual injury, Ob
Outline: as §2

[1] = system: bird's-eye speedwell (VERPE); experiment: Postemergence greenhouse trial, % visual injury on bird's-eye speedwell; type: in vivo, Veronica persica; conditions: alone
Outline: as §2

Nc1c(F)c(-c2ccc3cc[nH]c3c2F)nc(C(=O)O)c1Cl [compound 1]
% visual injury, Ob (spring barley (HORVS); 4.375 g/ha): 13%
% visual injury, Ob (spring barley (HORVS); 8.75 g/ha): 13%
% visual injury, Ob (spring barley (HORVS); 17.5 g/ha): 24%
% visual injury, Ob (spring barley (HORVS); 35 g/ha): 32%
% visual injury, Ob (spring barley (HORVS); 70 g/ha): 41%
pest or weed control at 4.375 g/ha (lambsquarters (CHEAL); 4.375 g/ha): 86%
pest or weed control at 8.75 g/ha (lambsquarters (CHEAL); 8.75 g/ha): 95%
pest or weed control at 17.5 g/ha (lambsquarters (CHEAL); 17.5 g/ha): 99%
pest or weed control at 35 g/ha (lambsquarters (CHEAL); 35 g/ha): 100%
pest or weed control at 70 g/ha (lambsquarters (CHEAL); 70 g/ha): 100%
pest or weed control at 4.375 g/ha (thistle (CIRAR); 4.375 g/ha): 35%
pest or weed control at 8.75 g/ha (thistle (CIRAR); 8.75 g/ha): 62%
pest or weed control at 17.5 g/ha (thistle (CIRAR); 17.5 g/ha): 80%
pest or weed control at 35 g/ha (thistle (CIRAR); 35 g/ha): 90%
pest or weed control at 70 g/ha (thistle (CIRAR); 70 g/ha): 96%
pest or weed control at 4.375 g/ha (common poppy (PAPRH); 4.375 g/ha): 97%
pest or weed control at 8.75 g/ha (common poppy (PAPRH); 8.75 g/ha): 99%
pest or weed control at 17.5 g/ha (common poppy (PAPRH); 17.5 g/ha): 100%
pest or weed control at 35 g/ha (common poppy (PAPRH); 35 g/ha): 100%
pest or weed control at 70 g/ha (common poppy (PAPRH); 70 g/ha): 100%
pest or weed control at 4.375 g/ha (wild mustard (SINAR); 4.375 g/ha): 85%
pest or weed control at 8.75 g/ha (wild mustard (SINAR); 8.75 g/ha): 88%
pest or weed control at 17.5 g/ha (wild mustard (SINAR); 17.5 g/ha): 98%
pest or weed control at 35 g/ha (wild mustard (SINAR); 35 g/ha): 99%
pest or weed control at 70 g/ha (wild mustard (SINAR); 70 g/ha): 100%
% visual injury, Ob ([1]; 4.375 g/ha): 93%
% visual injury, Ob ([1]; 8.75 g/ha): 95%
% visual injury, Ob ([1]; 17.5 g/ha): 98%
% visual injury, Ob ([1]; 35 g/ha): 99%
% visual injury, Ob ([1]; 70 g/ha): 99%
